The target of this test is T1, human oxytocin receptor (Homo sapiens, UniProt P30559).
T1 construct: host or cells: CHO cells, stably transfected (pcDNA3.1 vector)
T1 sequence (P30559 1-389): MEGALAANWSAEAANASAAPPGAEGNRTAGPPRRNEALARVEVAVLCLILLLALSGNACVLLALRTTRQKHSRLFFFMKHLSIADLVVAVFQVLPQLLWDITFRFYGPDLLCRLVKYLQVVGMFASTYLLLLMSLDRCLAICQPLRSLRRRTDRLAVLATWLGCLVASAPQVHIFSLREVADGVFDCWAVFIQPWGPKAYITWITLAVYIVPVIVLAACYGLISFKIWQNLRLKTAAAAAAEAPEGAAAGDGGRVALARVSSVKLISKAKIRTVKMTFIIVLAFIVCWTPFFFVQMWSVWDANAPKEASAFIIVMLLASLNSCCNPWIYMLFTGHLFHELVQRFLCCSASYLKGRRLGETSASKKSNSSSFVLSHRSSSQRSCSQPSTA
Put plainly: Oxytocin binding in CHO cell membranes expressing human oxytocin receptors. To be noted: [3H]oxytocin; for IC50: value in parentheses, read-out: OT IC50. The text has this: Oxytocin binding in Chinese Hamster Ovary cell membranes expressing human oxytocin receptors
Chinese Hamster Ovary (CHO) cells stably transfected with the human oxytocin (cf. Tanizawa et al., U.S. Pat. No. 5,466,584 (1995) to Rohto Pharmaceutical Co. Ltd., Osaka, Japan) were obtained from M. Thibonnier, Case Western Reserve University School of Medicine, Cleveland, Ohio.
A. Passaging and Amplification of Cells:
CHO cells transfected with the human oxytocin receptors obtained from M. Thibonnier (pcDNA3.1 vector) are allowed to grow to confluency (approx. >90%) in T-150 flasks under sterile conditions, in a cell culture medium consisting of F-12 Nutrient Mixture (HAM) with L-glutamine (Gibco Cat.# 11765-054) containing 15 mM HEPES (Gibco Cat.# 15630-080), 1% antibiotic/antimycotic (add 5 mL 100×, Gibco Cat.# 15240-062 per 500 mL F-12), 400 μg/mL of Geneticin (add 4 mL of 50 mg/mL per 500 mL F-12) and 10% Fetal Bovine Serum (Qualified, heat inactivated, Gibco Cat.# 16140-063). The medium is removed by aspiration and the cells are washed with 10 mL of Hank's Balanced Salt solution (Gibco Cat.# 14175-095). The salt solution is removed by aspiration and the cells trypsinized with 5 mL of trypsin-EDTA (0.05% trypsin, 0.53 mM EDTA-4Na, Gibco Cat.# 25300-070) for 1 min The trypsin is removed by aspiration and the cells dislodged by tapping. Cell Culture medium (e.g. 30 mL for 1:30 split) is immediately added and mixed well to inactivate trypsin. 1 mL of detached cells is added to new culture flasks containing fresh Cell Culture medium (e.g. into 25 mL per T-150 flask), and mixed gently. The cells are incubated at 37° C. in 5% CO2. The medium is changed at 3 to 4 days interval (or as appropriate). The cells grow to confluency (approx. >75%-95%) within 7-8 days. All steps are done under sterile conditions.
The cells are washed twice gently with Hank's Balanced Salt solution (eg, use 10 mL per T-150 flask). The excess solution is removed and the cells bathed for 15-30 min. in an enzyme-free Cell Dissociation Buffer (eg, use 8 mL Hank's Based, Gibco Cat.# 13150-016 per T-150 flask) until cells are loosened. The contents are transferred to centrifuge tubes (50 mL size) kept in ice bath. All subsequent steps are done at 4° C. The tubes are centrifuged at 300×g for 15 min (1380 rpm on SORVAL, Model RT6000D, using rotor for 50 mL tubes). The supernatant is discarded and the cells suspended in homogenizing buffer (10 mM Tris-HCl containing 0.25 M sucrose and 1 mM EDTA, pH 7.4) ensuring that the volume of the buffer is about ten times the volume of the cell pellet. The cells are pooled into a centrifuge tube (50 mL) and homogenized with a Polytron at setting 6 for 10 sec. The homogenate is transferred into a Potter-Elvjehm homogenizer and homogenized with 3 strokes. The homogenate is centrifuged at 1500×g for 10 min at 4° C. (3100 rpm using SORVAL, model RT6000D, using rotor for 50 mL tubes). The pellet is discarded. The supernatant is centrifuged at 100,000×g for 60 min. at 4° C. (Beckman L8-80M ultracentrifuge; spin at 37,500 rpm with rotor type 70 Ti for 50 mL tubes; 38,000 rpm with type 80Ti for 15 mL tubes; or 35,800 rpm with rotor type 45Ti). The supernatant is discarded and the pellet suspended in 3 to 4 mL of Tris buffer (50 mM TRIS-HCl, pH 7.4). The protein content is estimated by the Bradford or Lowry method. The volume of the membrane suspension is adjusted with the membrane buffer (50 mM Tris-HCl containing 0.1 % BSA and 0.1 mM PMSF) to give 3.0 mg/mL (or as appropriate) of protein. The membranes are aliquoted and stored at −70° C.
C. Radioligand Binding Assay:
In wells of a 96-well format microtiter plate, is added 90, 110 or 130 μL (to make up a final volume of 200 μL) of assay buffer containing 50 mM of Tris-HCl (pH 7.4), […], 1 mg % aprotinin, 1 mg % leupeptin, 2 mg % 1,10-phenanthroline, 10 mg % trypsin inhibitor, and 0.1 mM PMSF. […]

These results are taken from patent publication US20030055046A1, “Novel pyrido cyclohexenyl phenyl carboxamides tocolytic oxytocin receptor antagonists” (Wyeth, priority 2001, published 2003).

Where a name gives a salt, the structure may show the parent alone.

Turning to `Cc1cc(C(=O)N2Cc3ccc(C(=O)N(C)CCc4ccncc4)n3Cc3ccccc32)ccc1C1=CCCCC1` [Example 13, 10-[4-(1-Cyclohex-1-en-1-yl)-3-methylbenzoyl]-N-methyl-N-[2-(4-pyridinyl)ethyl]-10,11-dihydro-5H-pyrrolo[2,1-c][1,4]benzodiazepine-3-carboxamide], the “OT % inhibition @ 100 nM” value is 95%.

`Cc1cc(C(=O)N2Cc3ccc(C(=O)NCc4ccccn4)n3Cc3ccccc32)ccc1C1=CCCCC1` [Example 5, 10-[4-(1-Cyclohex-1-en-1-yl)-3-methylbenzoyl]-N-(2-pyridinylmethyl)-10,11-dihydro-5H-pyrrolo[2,1-c][1,4]benzodiazepine-3-carboxamide]: the “OT % inhibition @ 100 nM” value is on record as 34%.

With `Cc1cc(C(=O)N2Cc3ccc(C(=O)NCc4cccnc4)n3Cc3ccccc32)ccc1C1=CCCCC1` [Example 6, 10-[4-(1-Cyclohex-1-en-1-yl)-3-methylbenzoyl]-N-(3-pyridinylmethyl)-10,11-dihydro-5H-pyrrolo[2,1-c][1 ,4]benzodiazepine-3-carboxamide], the “OT % inhibition @ 100 nM” value stood at 31%.

For the compound `CC1=C(c2ccc(C(=O)N3Cc4ccc(C(=O)N(C)Cc5cccnc5)n4Cc4ccccc43)cc2C)CCC[C@H]1O` [Example 3, 10-[4-((3R)-3-Hydroxy-2-methyl-cyclohex-1-en-1-yl)-3-methyl-benzoyl]-10,11-dihydro-5H-pyrrolo[2,1-c][1,4]benzodiazepine-3-carboxylic acid methyl-pyridin-3-yl methyl-amide], the “OT % inhibition @ 100 nM” value came out at 96%.

As to `Cc1cc(C(=O)N2Cc3ccc(C(=O)N4CCN(c5ccncc5)CC4)n3Cc3ccccc32)ccc1C1=CCCCC1` [Example 12, {10-[4-(1-Cyclohex-1-en-1-yl)-3-methylbenzoyl]-10,11-dihydro-5H-pyrrolo[2,1--c][1,4]benzodiazepin-3-yl}[4-(4-pyridinyl)-1-piperazinyl]methanone], the “OT % inhibition @ 100 nM” value came to 98%.

With `Cc1cc(C(=O)N2Cc3ccc(C(=O)NCCc4ccccn4)n3Cc3ccccc32)ccc1C1=CCCCC1` [Example 7, 10-[4-(1-Cyclohex-1-en-1-yl)-3-methylbenzoyl]-N-[2-(2-pyridinyl)ethyl]-10,11-pyrrolo[2,1-c][1,4]benzodiazepine-3-carboxamide], the “OT % inhibition @ 100 nM” value is listed as 42%.

Turning to `CC1=C(c2ccc(C(=O)N3Cc4ccc(C(=O)N(C)Cc5cccnc5)n4Cc4ccccc43)cc2C)CCC[C@H]1O.O=C(O)C(O)C(O)C(=O)O` [Example 4, 10-[4-((3R)-3-Hydroxy-2-methyl-cyclohex-1-en-1-yl)-3-methyl-benzoyl]-10,11-dihydro-5H-pyrrolo[2,1-c][1,4]benzodiazepine-3-carboxylic acid methyl-pyridin-3-yl methyl-amide L-(+)-tartaric acid salt], the “OT % inhibition @ 100 nM” value was 99%.

For the compound `Cc1cc(C(=O)N2Cc3ccc(C(=O)NCc4ccncc4)n3Cc3ccccc32)ccc1C1=CCCCC1` [Example 10, 10-[4-(1-Cyclohex-1-en-1-yl)-3-methylbenzoyl]-N-(4-pyridinylmethyl)-10,11-dihydro-5H-pyrrolo[2,1-c][1,4]benzodiazepine-3-carboxamide], the “OT % inhibition @ 100 nM” value is 45%.

On to `Cc1cc(C(=O)N2Cc3ccc(C(=O)N(C)CCc4ccccn4)n3Cc3ccccc32)ccc1C1=CCCCC1` [Example 8, 10-[4-(1-Cyclohex-1-en-1-yl)-3-methylbenzoyl]-N-methyl-N-[2-(2-pyridinyl)ethyl]-10,11-dihydro-5H-pyrrolo[2,1-c][1 ,4]benzodiazepine-3-carboxamide], for which the “OT % inhibition @ 100 nM” value worked out at 84%.

With `Cc1cc(C(=O)N2Cc3ccc(C(=O)N4CCN(c5ccccn5)CC4)n3Cc3ccccc32)ccc1C1=CCCCC1` [Example 9, {10-[4-(1-Cyclohex-1-en-1-yl)-3-methylbenzoyl]-10,11-dihydro-5H-pyrrolo[2,1-c][1,4]benzodiazepin-3-yl}[4-(2-pyridinyl)-1-piperazinyl]methanone], the “OT % inhibition @ 100 nM” value stood at 37%.

Broadly, the IC50 is the midpoint of a concentration-inhibition curve. For `COc1cc(C2=CCCCC2)c(Cl)cc1C(=O)N1Cc2ccc(C(=O)N(C)Cc3cccnc3)n2Cc2ccccc21` [Example 1, 10-(5-Chloro-4-cyclohex-1-en-1-yl-2-me3thoxybenzoyl)-N-methyl-N-(pyridin-3-ylmethyl)-10,11-dihydro-5H-pyrrolo [2,1-c][1,4]benzodiazepine-3-carboxamide], the IC50 came to 4.47 nM.

For the compound `Cc1cc(C(=O)N2Cc3ccc(C(=O)N(C)Cc4cccnc4)n3Cc3ccccc32)ccc1C1=CCCCC1` [Example 11, 10-[4-(1-Cyclohex-1-en-1-yl)-3-methylbenzoyl]-N-methyl-N-(3-pyridinylmethyl)-10,11-dihydro-5H-pyrrolo[2,1-c][1,4]benzodiazepine-3-carboxamide], the “OT % inhibition @ 100 nM” value came to 87%.

Take `COc1cc(C2=CCCCC2)c(Cl)cc1C(=O)N1Cc2ccc(C(=O)N(C)Cc3cccnc3)n2Cc2ccccc21` [Example 2, 10-(5-Chloro-4-cyclohex-1-en-1-yl-2-methoxybenzoyl)-N-methyl-N-(pyridin-3-ylmethyl)-10,11-dihydro-5H-pyrrolo[2,1-c][1,4]benzodiazepine-3-carboxamide L-(+)-tartaric acid salt hemihydrate]: the half-maximal inhibitory concentration (IC50) stood at 3.17 nM.
